# Experimental data from ChEMBL document CHEMBL3885861, “Open TG-GATES”.
# Species on record: Rattus norvegicus
# Assay: Open TG-GATES - Regimen: Daily Repeat
# Format: toxicity, organism-based, Sprague-Dawley
# Set-up: regimen Daily Repeat, gender Male, age 6 weeks
# Settings: in vivo, po, route gavage; for IP / K / LDH / Na / PL / RALB / TBIL / TC / TG / TP / gamma-GTP / A/G / ALP / ALT / AST / BUN / CRE / Ca / Cl / DBIL / GLC: tissue Plasma; for APTT / Bas / Eos / Fbg / Hb / Ht / Lym / MCH / MCHC / MCV / Mono / Neu / PT / Plat / RBC / Ret / WBC: tissue Blood; for KIDNEY_L / KIDNEY_R / KIDNEY_TOTAL: tissue Kidney; for LIVER: tissue Liver
# [1] = 0 mg/kg, […], dose level Control, time 28 day
# [2] = 3 mg/kg, 72 h, dose level Low, time 3 day
# [3] = 3 mg/kg, […], dose level Low, time 7 day
# [4] = 3 mg/kg, […], dose level Low, time 14 day
# [5] = 3 mg/kg, […], dose level Low, time 28 day
smiles,measurement,setting,value
CCN(CC)N=O [N-NITROSODIETHYLAMINE],IP,[1],6.9 mg/dL
same,K,[1],3.7 meq/L
same,LDH,[1],203 IU/L
same,Na,[1],141 meq/L
same,PL,[1],135.2 mg/dL
same,RALB,[1],3.5 g/dL
same,TBIL,[1],0.2 mg/dL
same,TC,[1],72.4 mg/dL
same,TG,[1],104 mg/dL
same,TP,[1],6.1 g/dL
same,gamma-GTP,[1],1.2 IU/L
same,TERMINAL_BW,[2],235.3 g
same,APTT,[2],18.7 s
same,Bas,[2],0.2%
same,Eos,[2],1%
same,Fbg,[2],224.6 mg/dL
same,Hb,[2],13.3 g/dL
same,Ht,[2],38.4%
same,Lym,[2],82%
same,MCH,[2],21.3 pg
same,MCHC,[2],34.7%
same,MCV,[2],61.5 fL
same,Mono,[2],2%
same,Neu,[2],14.2%
same,PT,[2],11.7 s
same,Plat,[2],134.1 x10_4/uL
same,RBC,[2],624.4 x10_4/ul
same,Ret,[2],5.5%
same,WBC,[2],68.1 x10_2/uL
same,KIDNEY_L,[2],1.1 g
same,KIDNEY_R,[2],1.1 g
same,KIDNEY_TOTAL,[2],2.1 g
same,LIVER,[2],10.5 g
same,A/G,[2],1.5
same,ALP,[2],1018.6 IU/L
same,ALT,[2],33 IU/L
same,AST,[2],65.8 IU/L
same,BUN,[2],14.2 mg/dL
same,CRE,[2],0.4 mg/dL
same,Ca,[2],10.8 mg/dL
same,Cl,[2],102.6 meq/L
same,DBIL,[2],0.094 mg/dL
same,GLC,[2],204.6 mg/dL
same,IP,[2],8.5 mg/dL
same,K,[2],4.3 meq/L
same,LDH,[2],217.4 IU/L
same,Na,[2],140.6 meq/L
same,PL,[2],142.4 mg/dL
same,RALB,[2],3.3 g/dL
same,TBIL,[2],0.1 mg/dL
same,TC,[2],72.4 mg/dL
same,TG,[2],114.4 mg/dL
same,TP,[2],5.5 g/dL
same,gamma-GTP,[2],1.4 IU/L
same,TERMINAL_BW,[3],272 g
same,TERMINAL_BW,[4],323.6 g
same,TERMINAL_BW,[5],391.5 g
same,APTT,[3],20.6 s
same,Bas,[3],0%
same,Eos,[3],1%
same,Fbg,[3],219.2 mg/dL
same,Hb,[3],14 g/dL
same,Ht,[3],40%
same,Lym,[3],78.2%
same,MCH,[3],21.1 pg
same,MCHC,[3],34.8%
same,MCV,[3],60.7 fL
same,Mono,[3],3%
same,Neu,[3],17.2%
same,PT,[3],11.9 s
same,Plat,[3],142 x10_4/uL
same,RBC,[3],659.8 x10_4/ul
same,Ret,[3],4.8%
same,WBC,[3],96.9 x10_2/uL
same,APTT,[4],19.8 s
same,Bas,[4],0.8%
same,Eos,[4],1%
same,Fbg,[4],213.2 mg/dL
same,Hb,[4],14.4 g/dL
same,Ht,[4],41.3%
same,Lym,[4],78.4%
same,MCH,[4],20.8 pg
same,MCHC,[4],34.9%
same,MCV,[4],59.5 fL
same,Mono,[4],2%
same,Neu,[4],17.4%
same,PT,[4],12 s
same,Plat,[4],139.4 x10_4/uL
same,RBC,[4],695.4 x10_4/ul
same,Ret,[4],4.1%
same,WBC,[4],103.2 x10_2/uL
same,APTT,[5],19.1 s
same,Bas,[5],0.6%
same,Eos,[5],1.2%
same,Fbg,[5],215.6 mg/dL
same,Hb,[5],15.4 g/dL
same,Ht,[5],42.5%
same,Lym,[5],80.4%
same,MCH,[5],20.3 pg
same,MCHC,[5],36.3%
same,MCV,[5],55.9 fL
same,Mono,[5],2.4%
same,Neu,[5],15%
same,PT,[5],11.7 s
same,Plat,[5],124.2 x10_4/uL
same,RBC,[5],759.6 x10_4/ul
same,Ret,[5],2.9%
same,WBC,[5],104.7 x10_2/uL
same,KIDNEY_L,[3],1.2 g
same,KIDNEY_R,[3],1.2 g
same,KIDNEY_TOTAL,[3],2.3 g
same,KIDNEY_L,[4],1.3 g
same,KIDNEY_R,[4],1.2 g
same,KIDNEY_TOTAL,[4],2.5 g
same,KIDNEY_L,[5],1.3 g
same,KIDNEY_R,[5],1.3 g
same,KIDNEY_TOTAL,[5],2.7 g
same,LIVER,[3],12 g
same,LIVER,[4],13 g
same,LIVER,[5],14 g
same,A/G,[3],1.6
same,ALP,[3],847.6 IU/L
same,ALT,[3],31.2 IU/L
same,AST,[3],67.2 IU/L
same,BUN,[3],15.4 mg/dL
same,CRE,[3],0.4 mg/dL
same,Ca,[3],10.6 mg/dL
same,Cl,[3],103.4 meq/L
same,DBIL,[3],0.1 mg/dL
same,GLC,[3],191.6 mg/dL
same,IP,[3],8.2 mg/dL
same,K,[3],4.4 meq/L
same,LDH,[3],214.2 IU/L
same,Na,[3],140.4 meq/L
same,PL,[3],131.6 mg/dL
same,RALB,[3],3.4 g/dL
same,TBIL,[3],0.2 mg/dL
same,TC,[3],66.8 mg/dL
same,TG,[3],122.2 mg/dL
same,TP,[3],5.5 g/dL
same,gamma-GTP,[3],1 IU/L
same,A/G,[4],1.4
same,ALP,[4],752 IU/L
same,ALT,[4],36 IU/L
same,AST,[4],68.6 IU/L
same,BUN,[4],15.2 mg/dL
same,CRE,[4],0.4 mg/dL
same,Ca,[4],10.6 mg/dL
same,Cl,[4],102 meq/L
same,DBIL,[4],0.096 mg/dL
same,GLC,[4],192.2 mg/dL
same,IP,[4],7.7 mg/dL
same,K,[4],3.9 meq/L
same,LDH,[4],190.2 IU/L
same,Na,[4],141.2 meq/L
same,PL,[4],129.4 mg/dL
same,RALB,[4],3.4 g/dL
same,TBIL,[4],0.2 mg/dL
same,TC,[4],68.8 mg/dL
same,TG,[4],79.4 mg/dL
same,TP,[4],5.8 g/dL
